Reference: PubChem BioAssay AID179 (DTP/NCI, 2004)
“And” between values parts separate entries of the source, which are not always exact repeats. Equal values may be shown once. The source made the active and inactive calls.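 Rule for the calls: active = compounds giving half or more protection of infected cells from virus-caused growth loss, again on retest; inactive = the rest.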

System: CEM cells HIV-1 protection, formazan growth assay
Assay: NCI AIDS Antiviral Assay
Details: for IC50: measured here: growth of uninfected CEM cells
How it was run: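 Steps: treat uninfected and HIV-1-infected human CEM cells at five drug levels; quantify growth by soluble formazan; retest any compound reaching 50% protection; classify actives from the retest.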

Row | Structure (SMILES) | outcome | EC50 [µM] | IC50
1 | CC1=CC2C(O)(CC(CO)=CC3C4C(C)(C)C4(O)C(O)C(C)C32O)C1=O (configuration not stated) | inactive | – | –
2 | CCOC(=O)/C(=C\c1cccc(C(F)(F)F)c1)P(=O)(OCC)OCC | – | > 95.5 | 5.01 µM
3 | O=C(OCC(Cl)(Cl)Cl)N1CC[C@H](C2CCCCC2)C1 | – | > 200 | 50.1 µM
4 | Nc1nccc(NCC2(CO)CCC2)n1 | – | > 200 | > 200 µM
5 | O=C(N/C(=C/c1ccc(Cl)cc1)c1nc2ccccc2c(=O)n1Nc1ccc([N+](=O)[O-])cc1[N+](=O)[O-])c1ccccc1 | – | > 200 | 178 µM
6 | O=S1(=O)/C(=C\C2CCCCC2)c2c1c(-c1ccccc1)c1ccccc1c2-c1ccccc1 | – | > 49 | > 49 µM
7 | CNC(SC)=C1C(=O)OC(C)(C)OC1=O | – | > 1070 | 457 µM
8 | C/C(O)=C(/C=N/C(=S)Nc1ccc(S(N)(=O)=O)cc1)C(=O)Nc1ccccc1C | – | > 200 | > 200 µM
9 | CC(=O)C(CN(CC(C)C)CC(C)C)C(c1ccccc1)c1c(O)c2ccccc2oc1=O (configuration not stated) | – | > 28.2 | > 28.2 µM
10 | N#CCN1CCCN(CC#N)CCN(CC#N)CCCN(CC#N)CC1 | – | > 200 | 141 µM
11 | CC(=O)CC1CCC(=O)/C=C/C(=O)OC(CC(C)=O)CCC(=O)/C=C/C(=O)O1 (configuration not stated) | – | > 200 | 1.91 µM
12 | CCOC(=O)/C(Br)=C1\OC(=O)c2ccccc2-c2ccccc21 | – | > 19.5 | > 19.5 µM
13 | CC(C)(C)[Si](C)(C)OCCCCC1CC2(S(=O)(=O)C3=CC=C=C=C3)ON1CC2S(=O)(=O)c1ccccc1 (configuration not stated) | – | > 45.7 | > 45.7 µM
14 | O=c1c2ccccc2nc(-c2ccccc2)n1NC1OC(CO)C(O)C(O)C1O (configuration not stated) | inactive | – | –
15 | CCOC(=O)[C@H]1C[C@H]2O[C@H]2C[C@@H]1C | inactive | – | –
16 | Cc1cc(C)[s+]s1 | – | > 200 | 112 µM and 182 µM
17 | Cn1c(=O)c(C2c3ccccc3Oc3c2c(=O)n(C)c2ccccc32)c(O)c2ccccc21 (configuration not stated) | – | > 16.6 | > 16.6 µM
18 | CCOC(=O)/C(=C\c1cccc(Br)c1)P(=O)(OCC)OCC | – | > 91.2 | 6.03 µM
19 | CC(=O)OC1CC2C(C)(C)CCC[C@]2(C=O)C2=C1C(O)=C(C(C)C)C(=O)C2=O (some centres not stated) | inactive | – | –
20 | O/N=C/c1ccc(O)c(O)c1 | – | > 1620 | 87.1 µM
21 | CC(NCc1c(O)ccc2c(-c3ccccc3)cc(=O)oc12)C(=O)O (configuration not stated) | – | > 200 | > 200 µM
22 | O=c1cc(-c2ccccc2)[nH]c(=S)[nH]1 | – | > 200 | > 200 µM

Row | Structure (SMILES) | outcome | EC50 [µM] | IC50
23 | CN(C)c1ccc(-c2nc(N)nc3c2CCCC3)cc1 | – | > 37.2 | > 37.2 µM
24 | CC1C(=O)c2cc3c(cc2CCN(C)Cc2c1ccc1c2OCO1)OCO3 (configuration not stated) | – | > 70.8 | > 70.8 µM
25 | Cc1ccc(C(=O)/C=C/c2ccccc2Cl)cc1 | – | > 5.62 | > 5.62 µM
26 | CCOC(=O)c1cc2nc3ccccc3c(=O)n2c2ccccc12 | – | > 200 | > 200 µM
27 | CCC1(O)CCC2C3CC=C4CCCCC4C3CCC21C (configuration not stated) | – | > 200 | 30.9 µM
28 | O=C1c2ccccc2C(=O)c2c1cccc2-n1nnc2cc(Cl)c(Cl)cc21 | inactive | – | –
29 | N/N=C1\C(=O)N(c2ccc(Cl)c(Cl)c2)C(=O)C1C(=O)Nc1ccc(Cl)c(Cl)c1 (configuration not stated) | – | > 1.2 | > 1.2 µM
30 | CN(O)C(=O)CCCC(=O)NCC(C)(C)CNC(=O)CCCC(=O)N(C)O | – | > 200 | > 200 µM
31 | OCC(CO)c1cnnc2ccccc12 | – | > 525 | > 525 µM
32 | Cc1ccccc1NC(=O)C(=O)C(C#N)c1ccc(Cl)cc1 (configuration not stated) | – | > 12 | > 12 µM
33 | CC1=N/C(=C\c2ccccc2C)C(=O)O1 | – | > 1230 | > 1230 µM
34 | CCCCCCCCCCCCCCCCCC(=O)OC[C@H](COP(=O)(O)OCCNC(=O)CCC(=O)OCCC=C(c1cc(Cl)c(OC)c(C(=O)OC)c1)c1cc(Cl)c(OC)c(C(=O)OC)c1)OC(=O)CCCCCCCCCCCCCCCCC | – | > 100 | > 100 µM
35 | O=C1CC(c2ccc(Cl)cc2)NC(=O)N1CCCl (configuration not stated) | – | > 200 | > 200 µM
36 | Cc1cc(N(CCC#N)CCC#N)ccc1/C=C(\N=[N+]=[N-])C(=O)NC(=O)COc1ccccc1 | – | > 8.32 | > 8.32 µM
37 | CN1C(=O)CCC2(c3ccccc3)CC=C(O)C=C12 (configuration not stated) | – | > 200 | > 200 µM
38 | COC(=O)N/N=C(\C)C(CN1CCCCC1)C(C1=C(O)c2ccccc2OC1)c1ccccc1 (configuration not stated) | – | > 72.4 | 42.7 µM
39 | COC1=C(N)C(=O)c2nc(-c3nc(C(=O)O)c(C)c(-c4ccc(OC)c(OC)c4O)c3N)ccc2C1=O | – | > 4.9 | 0.00302 µM and 0.00191 µM
40 | Clc1ccc(SSc2ccc(Cl)cc2Cl)c(Cl)c1 | – | > 200 | 6.76 µM
41 | N#CCC(=O)N/N=C1/C(=O)N(c2cc(Cl)ccc2Cl)C(=O)C(=O)C1c1nc2ccccc2s1 (configuration not stated) | inactive | – | –
42 | OCCN1CC2CCCC1O2 (configuration not stated) | – | > 1580 | > 1580 µM
43 | CCN(c1ccccc1)[C@H]1C(=O)N(c2ccc([N+](=O)[O-])cc2)[C@H]1c1ccc(OC)cc1 | inactive | – | –
44 | N#CC(NCCc1ccccc1)c1ccc(C(C#N)NCCc2ccccc2)cc1 (configuration not stated) | – | > 200 | 10.5 µM

Row | Structure (SMILES) | outcome | EC50 [µM] | IC50
45 | Cc1ccc(C)c2c1CC(Cc1ccccc1C(=O)O)C2=O (configuration not stated) | – | > 200 | 158 µM
46 | COc1ccc2c(c1)OC[C@]1(C)c3cc(O)c(OCc4ccccc4)cc3O[C@H]21 | inactive | – | –
47 | Cc1ccc(S(=O)(=O)NC(CCC(=O)NN)C(=O)NN)cc1 (configuration not stated) | – | > 200 | > 200 µM
48 | CC(C)=CCC/C(C)=C/COC(=O)N(c1ccccc1)c1ccccc1 | – | > 200 | > 200 µM
49 | Cc1cc(O)c(/C=N/C(=S)Nc2cccc(C)c2C)c(=O)o1 | inactive | – | –
50 | NC1=Nc2ccccc2Sc2ccccc21 | – | > 60.3 | > 60.3 µM
51 | CCCCC(C)CCC(=O)C1=C(O)C(CC(=O)O)OC1=O (configuration not stated) | – | > 83.2 | > 83.2 µM
52 | COC1(C)C(=O)NC(=O)N(C2C=CC(CO)O2)C1O (configuration not stated) | – | 7.41 | 170 µM
53 | CCCCCCC(O)CCCCCCCCCCC(=O)OCC(COC(=O)CCCCCCCCCCC(O)CCCCCC)OC(=O)CCCCCCCCCCC(O)CCCCCC (configuration not stated) | – | > 100 | > 100 µM
54 | CC(C)[C@@H](C)[C@@]1(C)C[C@@H]1[C@@H](C)[C@H]1CC[C@@H]([C@@H]2CC=C3C[C@@H](O)CC[C@]3(C)C2=O)[C@]1(C)CCO | – | > 200 | 8.51 µM
55 | CCCC(C(=O)OC)C1N=C(NC#N)N(Cc2ccccc2)C1=O (configuration not stated) | – | > 110 | > 110 µM
56 | CCOC(=O)C1C(=O)CC(C)(O)C(C(=O)OCC)C1c1ccc(N(C)C)cc1 (configuration not stated) | – | > 200 | > 200 µM
57 | CC(=O)CCn1ncc(Cl)c(Cl)c1=O | – | > 550 | 6.92 µM
58 | C=C(C)C1CCC2(CO)C(O)CC3(C)C(CCC4C5(C)CCC(O)C(C)(C)C5CCC43C)C12 (configuration not stated) | – | > 100 | 75.9 µM
59 | COc1cc(C(CC(C)=O)c2cc3c(cc2OC(C)=O)OCO3)cc(OC)c1OC (configuration not stated) (tested in a mixture with another compound) | – | > 105 | 0.135 µM
60 | COC1CCC(OS(C)(=O)=O)C(CO)O1 (configuration not stated) | inactive | – | –
61 | c1cc(-c2ncc3ccncc3n2)ccn1 | – | > 64.6 | > 64.6 µM
62 | Cc1c(N)c(=O)oc2cc3occc(=O)c3cc12 | – | > 20.4 | 13.5 µM
63 | O=[N+]([O-])c1ccc2[nH]nc(OCc3ccccc3Cl)c2c1 | – | > 129 | > 129 µM
64 | CCCC(C)(O)CN (configuration not stated) | inactive | – | –
65 | COc1cc(-c2nc(N)c(C#N)c3c2CCS(=O)(=O)c2ccc(C)cc2-3)cc(OC)c1OC | – | > 200 | > 200 µM
66 | O=S(=O)(/C=C/C=C/S(=O)(=O)c1ccccc1)c1ccccc1 | – | > 2 | 0.251 µM

Row | Structure (SMILES) | outcome | EC50 [µM] | IC50
67 | C/C(=N/Nc1ccc([N+](=O)[O-])cc1[N+](=O)[O-])C(CC(C(=O)NCc1ccccc1)/C(C)=N\Nc1ccc([N+](=O)[O-])cc1[N+](=O)[O-])C(=O)NCc1ccccc1 (configuration not stated) | – | > 6.92 | > 6.92 µM
68 | CC1=C(C(=O)NC(C)(C)C)CC(C(=O)NC(C)(C)C)C(C)N1 (configuration not stated) | – | > 200 | > 200 µM
69 | C=CN1C(=O)OC(c2ccccc2)C1c1ccccc1 (configuration not stated) | – | > 93.3 | > 79.4 µM and 30.2 µM
70 | COc1ccc(Br)c(N/N=C2\CCCNC2=O)c1 | inactive | – | –
71 | O=C1[C@H]2ON(c3ccccc3)C(c3ccccc3Cl)[C@H]2C(=O)N1c1ccc(Cc2ccc(N3C(=O)[C@@H]4ON(c5ccccc5)C(c5ccccc5Cl)[C@@H]4C3=O)cc2)cc1 (some centres not stated) | – | > 8.71 | > 8.71 µM
72 | N=C1SC2CCCCCCC2S1 (configuration not stated) | – | > 200 | > 200 µM
73 | COc1ccc(-c2cc(=O)c3c(O)cc(O)cc3o2)cc1OC | – | > 70.8 | > 70.8 µM
74 | CC1(C)CNC(=O)C2(CCCO2)CNC(C)(C)CNC(=O)C2(CCCO2)CN1 (configuration not stated) | – | > 126 | > 126 µM
75 | O=C1C=Cc2cc(Br)ccc2C12CCc1c(O)ccc3cc(Br)cc2c13 (configuration not stated) | inactive | – | –
76 | O=C1C(C2CCCCC2)CCCC1(CO)CO (configuration not stated) | inactive | – | –
77 | O=C1NC2C=CN(Cc3ccccc3)C=C2C(=O)N2CCCC12 (configuration not stated) | – | > 6.46 | > 6.46 µM
78 | N#Cc1ccc(Sc2nc3ccccc3[nH]2)cc1 | inactive | – | –
79 | C=C1C(=O)C=C2C=C3C(=O)C(C)(C)C[C@]3(O)C12C (some centres not stated) | – | > 1020 | 0.389 µM
80 | O=C1CC(C[C@H](O)C2CCCCC2O)CC(=O)N1Cc1ccccc1 (some centres not stated) | – | > 200 | > 200 µM
81 | C/C=C1\CNC2Cc3c([nH]c4ccccc34)C(=O)CC1C2C(=O)OC (configuration not stated) | inactive | – | –
82 | CC(C)(C)OC(=O)NC(Cc1ccc(OCc2ccccc2)cn1)C(=O)O (configuration not stated) | – | > 200 | > 200 µM
83 | O=[N+]([O-])C1(CO)COC(CCc2ccccc2)OC1 (configuration not stated) | inactive | – | –
84 | CCCCCCCCOP(=O)(O)OP(=O)(O)OCC1OC(n2ccc(N)nc2=O)C(O)C1O (configuration not stated) | – | > 200 | > 200 µM
85 | NN=C(CC(O)(C(F)(F)Cl)C(F)(F)Cl)CC(O)(C(F)(F)Cl)C(F)(F)Cl | – | > 200 | 6.92 µM
86 | CC1=N/C(=C\c2ccc(N(C)C)cc2)C(=O)O1 | – | > 81.3 | > 81.3 µM
87 | CCC1=CCC(P(=O)(c2ccccc2)c2ccccc2)CC1C (configuration not stated) | – | > 11.5 | > 11.5 µM
